Structures can show the parent of a compound that is named as a salt.
Tests used:
[1] = tested on: inducible nitric oxide synthase activity (plasma nitrite/nitrate levels); assay: In vivo assay: LPS-induced increase in plasma nitrite/nitrate; conditions: Rattus norvegicus; rats, endotoxin (LPS) i.p., oral administration, 5 hours post-treatment; read-out: ED50, inhibition of LPS-induced increase in plasma nitrite/nitrate levels
Procedure: Plasma nitrite/nitrate levels can be determined 5 hours post-treatment.

[2] = molecular target: T1, human endothelial constitutive NOS (hecNOS) (Homo sapiens, UniProt P29474); assay: Citrulline assay for nitric oxide synthase, hecNOS; assay type: biochemical; conditions: recombinant enzyme, 30 μM L-arginine, calmodulin 40-100 nM
T1 construct: made in house; host or cells: Sf9 insect cells (baculovirus vector)
Description: (§1) Nitric oxide synthase (NOS) activity can be measured by monitoring the conversion of L-[2,3-^3H]-arginine to L-[2,3-^3H]-citrulline (Bredt and Snyder, Proc. Natl. Acad. Sci. U.S.A., 87, 682-685, 1990 and Moore et al, J. Med. Chem., 39, 669-672, 1996). Human inducible NOS (hiNOS), human endothelial constitutive NOS (hecNOS) and human neuronal constitutive NOS (hncNOS) are each cloned from RNA extracted from human tissue. The cDNA for human inducible NOS (hiNOS) is isolated from a λcDNA library made from RNA extracted from a colon sample from a patient with ulcerative colitis. The cDNA for human endothelial constitutive NOS (hecNOS) is isolated from a λcDNA library made from RNA extracted from human umbilical vein endothelial cells (HUVEC) and the cDNA for human neuronal constitutive NOS (hncNOS) is isolated from a λcDNA library made from RNA extracted from human cerebellum obtained from a cadaver. The recombinant enzymes are expressed in Sf9 insect cells using a baculovirus vector (Rodi et al, in The Biology of Nitric Oxide, Pt. 4: Enzymology. Biochemistry and Immunology; Moncada, S., Feelisch, M., Busse, R., Higgs, E., Eds.; Portland Press Ltd.: London, 1995; pp 447-450). Enzyme activity is isolated from soluble cell extracts and partially purified by DEAE-Sepharose chromatography. To measure NOS activity, 10 μL of enzyme is added to 40 μL of 50 mM Tris (pH 7.6) in the presence or absence of test compounds and the reaction initiated by the addition of 50 μL of a reaction mixture containing 50 mM Tris (pH 7.6), 2.0 mg/mL bovine serum albumin, 2.0 mM DTT, 4.0 mM CaCl2, 20 μM FAD, 100 μM tetrahydrobiopterin, 0.4 mM NADPH and 60 μM L-arginine containing 0.9 μCi of L-[2,3-^3H]-arginine. The final concentration of L-arginine in the assay is 30 μM. For hecNOS or hncNOS, calmodulin is included at a final concentration of 40-100 nM. […] After mixing the resin is allowed to settle and L-[2,3-^3H]-Citrulline formation is determined by counting aliquots of the supernatant with a liquid scintillation counter. […]

[3] = molecular target: T2, Human inducible NOS (hiNOS) (Homo sapiens, UniProt P35228); assay: Citrulline assay for nitric oxide synthase, hiNOS; assay type: biochemical; conditions: recombinant enzyme, 30 μM L-arginine, 37° C. 15 minutes
T2 construct: made in house; host or cells: Sf9 insect cells (baculovirus vector)
Description: as §1

[4] = molecular target: T3, human neuronal constitutive NOS (hncNOS) (Homo sapiens, UniProt P29475); assay: Citrulline assay for nitric oxide synthase, hncNOS; assay type: biochemical; conditions: recombinant enzyme, 30 μM L-arginine, calmodulin 40-100 nM
T3 construct: made in house; host or cells: Sf9 insect cells (baculovirus vector)
Description: as §1

| IC50 [2] | IC50 [3] | IC50 [4] | SMILES | ED50 [1] |
| --- | --- | --- | --- | --- |
|  |  |  | CC(=N)NC/C(C)=C\CC[C@H](N)C(=O)O [Example 1, (2S,5Z)-2-amino-6-methyl-7-[(1-iminoethyl)amino]-5-heptenoic acid, dihydrochloride] | < 0.1 mg/kg |
| 1490 µM | 172 µM | 523 µM | CC(=N)NC/C(C)=C/CC[C@H](N)C(=O)O [Example 2, (2S,5E)-2-amino-6-methyl-7-[(1-iminoethyl)amino]-5-heptenoic acid, dihydrochloride] |  |
| 89 µM | 0.9 µM | 8 µM | CC(=N)NC/C=C\CC[C@H](N)C(=O)O [Example 6, (2S,5Z)-2-amino-7-[(1-iminoethyl)amino]-5-heptenoic acid, dihydrochloride] |  |
| 418 µM | 20 µM | 150 µM | CC(=N)NC/C=C/CC[C@H](N)C(=O)O [Example 8, (2S,5E)-2-amino-7-[(1-iminoethyl)amino]-5-heptenoic acid, dihydrochloride] |  |

From patent publication US6545170B2, “2-amino-5, 6 heptenoic acid derivatives useful as nitric oxide synthase inhibitors” (Pharmacia Corporation, priority 2000, dated 2003)
